Data from patent US12036312B2, “Non-aqueous topical compositions comprising a halogenated salicylanilide” (priority 2016, dated 2024).
Converted amounts (≈) assume the structure as drawn. Like-named read-outs stand apart in the source and are kept apart here.

What was measured:
S. pyogenes [1] = assay: Minimum inhibitory concentration (MIC) assay, Example 1, S. pyogenes strains; assay type: cell-based; conditions: Streptococcus pyogenes, read-out: MIC
Method: Twenty-one other MRSA and methicillin-sensitive S. aureus strains, and 4 Streptococcus pyogenes strains, were also included in the study (Table 2). These covered fusidic acid- and mupirocin-resistant strains, these two types of resistance being of clinical relevance.
Strains were conserved in Luria Bertani (LB) Broth (S. aureus) or Brain Heart Infusion (BHI) (S. pyogenes) supplemented with glycerol 15% (v/v) at −80° C., and reactivated by isolation on LB (S. aureus) or BHI (S. pyogenes) agar plates. Strains were cultivated in Mueller Hinton (MH) Broth-cation adjusted (S. aureus) supplemented with lysed horse blood 2.5% (v/v) (S. pyogenes). All strains were cultivated at 37° C., aerobically for S. aureus strains.
Bacterial cultures were stopped in their exponential growth phase and plates were inoculated with the approximate concentration of 10^3 cells per well. Plates were incubated at 37° C. for 18 hours (S. aureus) or 24 hours (S. pyogenes). Optical density at a wavelength of 600 nm was measured at the end of the incubation time. […] Experiments were performed at least as triplicate biological replicates with all strains.

S. pyogenes [2] = assay: MIC assay, Example 2, S. pyogenes strains (in BHI); assay type: cell-based, Streptococcus pyogenes; conditions: 4 strains
Method: Two-hundred-four other MRSA and methicillin-sensitive S. aureus strains, and 4 Streptococcus pyogenes strains, were also included in the study. These covered fusidic acid- and mupirocin-resistant strains, these two types of resistance being of clinical relevance.
Strains were conserved in Luria Bertani (LB) Broth (S. aureus) or Brain Heart Infusion (BHI) (S. pyogenes) supplemented with glycerol 15% (v/v) at −80° C., and reactivated by isolation on LB (S. aureus) or BHI (S. pyogenes) agar plates. Strains were cultivated in Mueller Hinton (MH) Broth-cation adjusted (S. aureus) or BHI (S. pyogenes). All strains were cultivated aerobically (microaerobically for S. pyogenes strains) at 37° C.
Bacterial cultures were stopped in their exponential growth phase and plates were inoculated with the approximate concentration of 5×10^5 cells per well. Plates were incubated at 37° C. for 18 hours (S. aureus) or 24 hours (S. pyogenes). Optical density at a wavelength of 600 nm was measured at the end of the incubation time.

[3] = published literature values; cited from earlier work
[4] = tested on: MRSA 01, MRSA 15 (fusidic acid-resistant), MRSA 16 (mupirocin-resistant); assay: Mutational frequency evaluation (spontaneous single-step mutations), Example 1; assay type: cell-based, Staphylococcus aureus; conditions: at MIC×1 (Example 1)
P. aeruginosa = conditions: Imperi et al. 2013, cited from earlier work
MRSA 01 [5] = assay: Time-kill assay; assay type: cell-based, Staphylococcus aureus; conditions: initial inoculum 7 log10 cfu/ml, niclosamide 4 μg/ml [MIC×10]
Method: This assay was performed in 20 ml of medium. It included a negative control (medium without bacteria), a positive control (bacteria grown without niclosamide) and the assay (bacteria grown with niclosamide). […] This experiment was performed with the primary test microorganism indicated above.
The overnight culture was stopped and OD600 was measured. Culture was then diluted in indicated medium to obtain an OD600 of 0.25 in order to have about 5×10^8 cfu/ml. Two hundred μl of this diluted culture were then added in all conditions except in the negative control. Initial bacterial concentration was about 5×10^6 cfu/ml. Tubes were incubated aerobically at 37° C. for 24 hours.
Bacteria were enumerated before the incubation, after 30 minutes, 1, 2, 4, 8 and 24 hours of incubation by serial dilutions in NaCl 0.9% and plating on LB agar, with 2 plates per dilution. Plates were incubated at 37° C. and colonies enumerated after 24 hours.

[6] = Mini-pig PK: niclosamide concentration in plasma; assay type: in vivo, Göttingen SPF mini-pigs; conditions: mini-pigs, day 28, dermal application of the formulations
Method: The study was performed in 3 male and 3 female Göttingen SPF mini-pigs from Ellegaard Göttingen Mini-pigs A/S, DK-4261 Dalmose, Denmark. At the start of the acclimatization period, the animals were approximately 6 months old and the body weight was 12.1 to 13.4 kg. An acclimatization period of at least 1 week was allowed, during which the animals were observed daily.
All test fields were semi-occluded with Mefix® (Mölnlycke Health Care, Sweden), allowing the sites to “breathe” while keeping the test substance in place. The Mefix® was kept in place with adhesive tape (Tensoplast, BSN medical, Germany) for 6 hours±30 minutes after application to ensure that the compounds were absorbed into the skin.

MRSA 01 [7] = assay: Effect of pH on the antibacterial activity (MIC in pH-adjusted Mueller-Hinton Broth); assay type: cell-based, Staphylococcus aureus; conditions: for MIC: Staphylococcus aureus, MRSA
Method: Chosen for its relevance regarding bacterial skin infections, the methicillin-resistant S. aureus (MRSA) 01 strain was used. This strain is a community-acquired MRSA clinical isolate of USA 300 type, from a skin abscess.
This strain was conserved in Luria Bertani (LB) Broth supplemented with glycerol 15% (v/v) at −80° C., and reactivated by isolation on LB agar plates. It was then cultivated aerobically in Mueller Hinton (MH) Broth-cation adjusted at 37° C.
The pH of Mueller-Hinton Broth cation-adjusted was adjusted with HCl 2M to 7, 6.5, 6, 5.5, 5, 4.5 and […]. Ten ml of medium for each pH were prepared. The pH of non-adjusted MHBII was equal to 7.4.
Each pH-adjusted samples were filtered on 0.2 μm filters before being used for the MIC determination assay.
Bacterial culture was stopped in its exponential growth phase and plates were inoculated with the approximate concentration of 5×10^5 cells per well. Plates were incubated at 37° C. for 18 hours (S. aureus). Optical density at a wavelength of 600 nm was measured at the end of the incubation time.
The experiment was performed in triple biological replicates.

O=C(Nc1ccc([N+](=O)[O-])cc1Cl)c1cc(Cl)ccc1O [Niclosamide, niclosamide]
MIC (S. pyogenes [1]; ATCC12385, S. pyogenes strain ATCC 12385): 1.6 µg/mL (≈ 4.89 µM)
MIC (S. pyogenes [1]; ATCC19615, S. pyogenes strain ATCC 19615): 3.2 µg/mL (≈ 9.78 µM)
MIC (S. pyogenes [1]; CCUG25571, S. pyogenes strain CCUG 25571): 3.2 µg/mL (≈ 9.78 µM)
MIC (S. pyogenes [1]; S. pyogenes strain 01): 3.2 µg/mL (≈ 9.78 µM)
MIC distribution: percentage of Streptococcus pyogenes strains (S. pyogenes [2]; MIC 0.0625 μg/ml): 25%
MIC distribution: percentage of Streptococcus pyogenes strains (S. pyogenes [2]; MIC 0.5 μg/ml): 25% (1/4)
MIC distribution: percentage of Streptococcus pyogenes strains (S. pyogenes [2]; MIC […]): 25% (1/4)
LD50 mice p.o [3]: >1500 mg/kg
mutational frequency [4]: < 4×10^−10
effect on growth of P. aeruginosa (P. aeruginosa): does not affect the growth of P. aeruginosa
concentration at which some inhibition was detected (quorum sensing) (P. aeruginosa; P. aeruginosa): 1 µM
concentration required for optimal activity (quorum sensing) (P. aeruginosa; P. aeruginosa): 20 µM
bactericidal or bacteriostatic effect (MRSA 01 [5]): bacteriostatic effect
concentration in the plasma [6]: less than 0.651 ng/mL
MIC (MRSA 01 [7]; MRSA 01, pH 7.0 (actual pH 7.071), Replicate 2): 0.125 µg/mL (≈ 0.382 µM)
MIC (MRSA 01 [7]; pH 7.4, MRSA 01, pH not adjusted (actual pH 7.4), Replicate 1): 0.5 µg/mL (≈ 1.53 µM)
MIC (MRSA 01 [7]; pH 7.4, MRSA 01, pH not adjusted (actual pH 7.4), Replicate 3): 0.5 µg/mL (≈ 1.53 µM)
inhibitory activity against MRSA 01 as a function of pH (MRSA 01 [7]; pH-adjusted Mueller-Hinton Broth): increased when pH was decreased
